Data as given in US6426204B1, “Method for detecting candida infection” (priority 1991, dated 2002).

Target: T1, C. tropicalis D-arabinitol dehydrogenase (Candida tropicalis, UniProt P50166)
T1 construct: endogenous in cells
Assay: Specificity of the fluorogenic D-arabinitol assay (reactivity of sugars and sugar alcohols)
Format: biochemical
Details: compound 5 μmol/L in PBS/10 mmol/L citrate pH 4.0; relative to D-arabinitol
Method: Human serum was diluted 1:3 (v/v) with 10 mmol/L citrate (pH 4.0), placed in a boiling water bath for 10 min, and then centrifuged at 10,000×g for 10 min to remove precipitated material. The supernatant was used as the sample. Reaction mixtures (vol.=0.4 mL) contained 0.3 mL of sample, 1 mmol/L NAD^+, 4 mmol/L Mg^2+, 0.35 IU C. tropicalis D-arabinitol dehydrogenase prepared as described in Example 1, and 0.1 mol/L Tris (pH 9.5). Incubation was for 15 min at room temperature to promote the D-arabinitol dehydrogenase-catalyzed oxidation of D-arabinitol with concomitant reduction of NAD^+ to NADH. This initial incubation stage was terminated by reducing the pH of the reaction mixture to 5.8 with 0.03 mL 1.0 mol/L citrate (pH 3.6). Resazurin (12.5 μmol/L) and diaphorase (0.15 IU) were then added, and the sample was reincubated at room temperature to promote the diaphorase-catalyzed utilization of NADH (which had accumulated in the initial incubation stage) for the reduction of resazurin to resorufin. Formation of the latter was monitored fluorometrically (Excitation=560 nm, Emission=580 nm) using a Perkin-Elmer fluorescence spectrophotometer, Model #650-40, and was complete within 30 sec.
A series of sugars and sugar alcohols normally present in human serum were assessed for reactivity in the fluorometric assay. Of the compounds examined, significant reactivity relative to that observed with an equimolar concentration of D-arabinitol was found only with xylitol (3.3%). D-glucose at concentrations as great as 5.0 mmol/L was not utilized as “a” substrate.
Assays were performed as described in Example 4 except the sample contained, instead of the boiled serum supernatant, the indicated compound in PBS/10 mmol/L citrate, pH 4.0 (1:3, v/v).

T1 sequence (P50166 whole entry): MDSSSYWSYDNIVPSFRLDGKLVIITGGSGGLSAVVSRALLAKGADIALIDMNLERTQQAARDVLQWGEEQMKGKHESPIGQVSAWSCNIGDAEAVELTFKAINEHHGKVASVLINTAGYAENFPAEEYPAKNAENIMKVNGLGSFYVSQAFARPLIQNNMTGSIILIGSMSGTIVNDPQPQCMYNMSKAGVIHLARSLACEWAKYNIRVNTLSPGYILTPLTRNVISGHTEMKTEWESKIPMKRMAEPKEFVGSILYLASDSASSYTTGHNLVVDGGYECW

First: OC[C@H](O)C(O)[C@@H](O)CO [L-arabinitol]
Second: OC[C@@H](O)[C@H](O)[C@@H](O)CO [xylitol]
The “Relative Reactivity” value of the first is lower: 0% for the first, 3.3% for the second.

Going from `OC[C@@H](O)[C@H](O)[C@H](O)[C@@H](O)CO` [galactitol] to `OC[C@@H](O)[C@@H](O)[C@H](O)[C@H](O)CO` [D-mannitol], the “Relative Reactivity” value falls from 0.6% to 0%.

Going from `OC[C@@H](O)[C@@H](O)CO` [erythritol] to `OC[C@@H](O)[C@H](O)CO` [threitol], the “Relative Reactivity” value rises from 0% to 0.1%.

Compared with `OC[C@@H](O)[C@@H](O)[C@@H](O)CO` [ribitol], `OC[C@@H](O)C(O)[C@H](O)CO` [D-arabinitol] is higher in “Relative Reactivity” value: 0% for the first, 100% for the second.

`OC[C@@H](O)[C@@H](O)[C@H](O)[C@@H](O)CO` [D-sorbitol] was tested, and the “Relative Reactivity” value was 0.1%.

Same assay, conditions: compound 500 μmol/L in PBS/10 mmol/L citrate pH 4.0; relative to D-arabinitol

First: O=C(CO)[C@@H](O)[C@H](O)[C@H](O)CO [D-fructose]
Second: O=C[C@H](O)[C@@H](O)[C@@H](O)[C@H](O)CO [D-galactose]
The “Relative Reactivity” value of the first is lower: 0% for the first, 0.9% for the second.

In the case of `O=C[C@@H](O)[C@@H](O)[C@H](O)[C@H](O)CO` [D-mannose], the “Relative Reactivity” value is reported as 0.3%.

Same assay, conditions: compound 5000 μmol/L in PBS/10 mmol/L citrate pH 4.0; relative to D-arabinitol

In the case of `O=C[C@H](O)[C@@H](O)[C@H](O)[C@H](O)CO` [D-glucose], the “Relative Reactivity” value is reported as 0%.

Same assay, conditions: concentrations as great as 5.0 mmol/L

With `O=C[C@H](O)[C@@H](O)[C@H](O)[C@H](O)CO` [D-glucose] the “Utilization as substrate in the fluorometric assay” value was “not utilized”.
